For data set [1], the target named is nicotinic receptors comprising the α7 subunit (Rattus norvegicus, UniProt Q05941). Kind of data set: biochemical. It is filed as binding.

SMILES strings stand for the structures. Structures can show the parent of a compound that is named as a salt.

Drawing on patent US8759343B2 (priority 2007, dated 2014), this text covers melting point and IC50 for twelve compounds.

One may read the melting point as the temperature of the solid-liquid transition. For orientation: IC50 means the midpoint of a concentration-inhibition curve. A lower IC50 goes with greater potency in that assay.

Sequence of nicotinic receptors comprising the α7 subunit (Q05941 23-502): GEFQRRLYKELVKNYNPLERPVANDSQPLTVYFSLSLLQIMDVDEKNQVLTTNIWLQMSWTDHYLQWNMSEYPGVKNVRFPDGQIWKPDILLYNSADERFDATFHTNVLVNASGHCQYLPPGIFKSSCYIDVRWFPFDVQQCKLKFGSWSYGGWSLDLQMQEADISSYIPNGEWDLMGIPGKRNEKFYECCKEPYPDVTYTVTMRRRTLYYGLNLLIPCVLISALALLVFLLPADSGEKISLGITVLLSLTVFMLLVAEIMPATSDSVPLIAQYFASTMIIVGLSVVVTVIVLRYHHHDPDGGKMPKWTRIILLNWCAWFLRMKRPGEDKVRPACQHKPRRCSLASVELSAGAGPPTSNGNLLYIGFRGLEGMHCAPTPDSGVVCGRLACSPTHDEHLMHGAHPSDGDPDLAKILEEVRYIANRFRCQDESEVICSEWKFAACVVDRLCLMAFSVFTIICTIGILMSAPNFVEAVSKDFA

Take `FC(F)(F)Oc1cccc(-c2ccc(C34CCN(CC3)C4)cn2)c1` (as salt: HCl): the melting point fell in the range of 152 to 154 °C.
On the same count and under the same terms, then `COc1ccc(-c2ccc(C34CCN(CC3)C4)cn2)cc1OC` (as salt: HCl), with 247 to 249 °C; and `FC(F)(F)c1cccc(-c2ccc(C34CCN(CC3)C4)cn2)c1` (as salt: HCl), with 191 to 192 °C; and `c1cc(-c2ccc(C34CCN(CC3)C4)cn2)c[nH]1` (as salt: HCl), with 324 to 326 °C.
Consider `c1ccc2c(c1)nnn2-c1ccc(C23CCCN(CCC2)C3)cn1` (as salt: HCl), for which the melting point lay within 258 to 260 °C.
Still for that read-out and setting: the figure for `c1ccc2c(c1)sc1ccc(-c3ccc(C45CCCN(CCC4)C5)cn3)cc12` (as salt: HCl) is 242 to 244 °C; for `COc1cccc(-c2ccc(C34CCCN(CCC3)C4)cn2)c1` (as salt: HCl) it is 267 to 269 °C; for `c1cnc2ccc(-c3ccc(C45CCN(CC4)C5)cn3)cc2c1` (as salt: HCl) [Compound 12, 6-[5-(1-azabicyclo[2.2.1]hept-4-yl)pyridin-2-yl]quinoline] it is 327 to 328 °C.
For the compound `c1cnc2ccc(-c3ccc(C45CCN(CC4)C5)cn3)cc2c1` [Compound 12, 6-[5-(1-azabicyclo[2.2.1]hept-4-yl)pyridin-2-yl]quinoline], the IC50 in data set [1] stood at 37.1 nM.
Take `c1cc2c(cc1-c1ccc(C34CCN(CC3)C4)cn1)OCO2` [Compound 16, 4-[6-(1,3-benzodioxol-5-yl)pyridin-3-yl]-1-azabicyclo[2.2.1]heptane]: the melting point was 256 to 258 °C. In addition, the IC50 in data set [1] was determined as 9.1 nM.
The matching figures for `Fc1cccc(-c2ccc(C34CCN(CC3)C4)cn2)c1` [Compound 19, 4-[6-(3-fluorophenyl)pyridin-3-yl]-1-azabicyclo[2.2.1]heptane]: 88 to 90 °C and 13.8 nM.
The matching figures for `c1cc(-c2ccc(C34CCN(CC3)C4)cn2)cc(-n2cccn2)c1` [Compound 113, 4-[6-(3-(pyrazol-1-yl)phenyl)pyridin-3-yl]-1-azabicyclo[2.2.1]heptane]: 114 to 116 °C and 4.7 nM.
